Molecules are shown by their SMILES.

This passage reports inhibition and IC50 results from patent US20250368633A1, “AZEPINE FUSED RING COMPOUND AS RIPK1 INHIBITOR AND USE THEREOF” (ARTIVILA BIOPHARMA, priority 2022, published 2025).

Assay [1] concerns the target T1, RIPK1 kinase (Homo sapiens, UniProt Q13546).
T1 construct: purchased Promega VA7593
T1 sequence (Q13546 1-671): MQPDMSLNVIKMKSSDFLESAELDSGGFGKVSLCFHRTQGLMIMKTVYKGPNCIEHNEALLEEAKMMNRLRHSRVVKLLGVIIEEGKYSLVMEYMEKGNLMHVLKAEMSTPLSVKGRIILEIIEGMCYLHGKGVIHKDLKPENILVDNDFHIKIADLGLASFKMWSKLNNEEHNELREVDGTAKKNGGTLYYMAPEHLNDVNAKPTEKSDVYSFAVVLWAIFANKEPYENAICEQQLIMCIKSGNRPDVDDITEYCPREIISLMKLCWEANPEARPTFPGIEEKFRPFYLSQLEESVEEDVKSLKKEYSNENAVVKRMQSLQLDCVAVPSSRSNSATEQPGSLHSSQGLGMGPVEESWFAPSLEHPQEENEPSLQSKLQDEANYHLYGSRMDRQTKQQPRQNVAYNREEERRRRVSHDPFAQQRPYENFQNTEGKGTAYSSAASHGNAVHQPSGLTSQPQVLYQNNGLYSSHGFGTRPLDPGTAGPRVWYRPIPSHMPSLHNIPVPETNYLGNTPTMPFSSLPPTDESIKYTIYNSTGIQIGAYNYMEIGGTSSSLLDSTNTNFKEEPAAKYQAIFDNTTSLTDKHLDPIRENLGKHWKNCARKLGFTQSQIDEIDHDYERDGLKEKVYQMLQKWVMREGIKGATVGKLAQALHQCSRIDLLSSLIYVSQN
The assay can be described thus: In vitro RIPK1 kinase activity assay (ADP-Glo), inhibition by compounds at 1 μM. It counts as biochemical. As to conditions: compound 1 μM; ATP 10 μM; MBP substrate 100 μg/mL; read-out: RIPK1 kinase activity inhibition rate range. The gist of the method: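 Compound and RIPK1 were preincubated 15 min at room temperature, then reacted 1 h with 10 μM ATP and 100 μg/mL MBP substrate in kinase buffer D. ADP formed was measured by ADP-Glo luminescence and converted to percent inhibition of kinase activity.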

In assay [2] the target is T1, RIPK1 kinase. The assay can be described thus: In vitro RIPK1 kinase activity IC50 assay (ADP-Glo). It counts as biochemical. The conditions noted are these: ATP 10 μM; MBP substrate 100 μg/mL; 8 concentration points; read-out: IC50 range of compounds for RIPK1 kinase activity. How it is done:
RIPK1 kinase activity was assayed using the ADP-Glo assay and RIPK1 kinase reaction system (Promega, catalog number: VA7593). The RIPK1 kinase activity assay was performed according to the Promega kit manual.
The experimental method was briefly described as below. The concentration of RIPK1 kinase in the RIPK1 kinase reaction system was determined by kinase titration and S/B10. The compound was diluted with 1× kinase buffer D (1% DMSO), 1 μL of 1 mM compound DMSO stock solution was added to 19 μL 1× kinase buffer D, and the compound was serially diluted with 1× kinase buffer D at a ratio of 1:5, for a total of 8 concentration points, and a control with the same DMSO volume was set. RIPK1 kinase was diluted with 1× kinase buffer D. 2.5×ATP/substrate was diluted with 1× kinase buffer D. The final concentration of ATP in the kinase reaction system was 10 μM. The final concentration of MBP substrate was 100 μg/mL. 1 μL of diluted compound and 2 μL of diluted RIPK1 kinase were mixed, incubated at room temperature for 15 minutes, 2 μL of 2.5×ATP/substrate was added, mixed, and incubated at room temperature for 1 hour. 5 μL ADP-Glo reagent was added to each well and incubated at room temperature for 1 hour. 10 μL ADP detection reagent was added to each well and incubated at room temperature for another 0.5-1 hour. The chemiluminescent signal was read with a microplate reader and the kinase activity inhibition rate was calculated. IC50 was obtained by fitting the nonlinear regression curve log [inhibitor] vs. response-variable slope (four parameters) in GraphPad Prism.

As to `CC(Cc1ccccc1)NC(=O)C(=O)N[C@H]1COc2ccc(C#CCCO)cc2N(C)C1=O` (mixture of isomers) [Example 37, N^1-((S)-7-(4-hydroxybut-1-yn-1-yl)-5-methyl-4-oxo-2,3,4,5-tetrahydrobenzo[b][1,4]oxazepin-3-yl)-N^2-(1-phenylpropan-2-yl)oxalamide], the inhibition at 1 µM at RIPK1 kinase [1] is 50 to 74%. Also, the IC50 at RIPK1 kinase [2] is less than 100 nM.

With `CC(NC(=O)C(=O)N[C@H]1COc2ccc(C#CCCO)cc2N(C)C1=O)c1ccccc1` (mixture of isomers) [Example 41, N^1-((S)-7-(4-hydroxybut-1-yn-1-yl)-5-methyl-4-oxo-2,3,4,5-tetrahydrobenzo[b][1,4]oxazepin-3-yl)-N^2-(1-phenylethyl)oxalamide], the inhibition at 1 µM on RIPK1 kinase [1] was not below 75%. In addition, the half-inhibitory concentration (IC50) at RIPK1 kinase [2] was less than 100 nM.

Consider `CN1CCC(CC#Cc2ccc3c(c2)N(C)C(=O)[C@@H](NC(=O)C(=O)NCCc2ccccc2)CO3)C1=O` (mixture of isomers) [Example 82, N^1-((3S)-5-methyl-7-(3-(1-methyl-2-oxopyrrolidin-3-yl)prop-1-yn-1-yl)-4-oxo-2,3,4,5-tetrahydrobenzo[b][1,4]oxazepin-3-yl)-N^2-phenethyloxalamide], for which the inhibition at 1 µM at RIPK1 kinase [1] was not below 75%. Besides, on RIPK1 kinase [2], the IC50 was less than 100 nM.

As to `CN1C(=O)[C@@H](NC(=O)C(=O)NCCc2cccc(F)c2)COc2ccc(C#CCN3CCC(O)C3)cc21` (mixture of isomers) [Example 113, N^1-(3-fluorophenethyl)-N^2-((3S)-7-(3-(3-hydroxypyrrolidin-1-yl)prop-1-yn-1-yl)-5-methyl-4-oxo-2,3,4,5-tetrahydrobenzo[b][1,4]oxazepin-3-yl)oxalamide], the inhibition at 1 µM at RIPK1 kinase [1] is not below 75%. Further, the 50% inhibitory concentration (IC50) at RIPK1 kinase [2] is less than 100 nM.

Consider `C[C@@H](NC(=O)C(=O)N[C@H]1COc2ccc(C#CCN3CCC(O)C3)cc2N(C)C1=O)c1ccccc1` (mixture of isomers) [Example 126, N^1-((3S)-7-(3-(3-hydroxypyrrolidin-1-yl)prop-1-yn-1-yl)-5-methyl-4-oxo-2,3,4,5-tetrahydrobenzo[b][1,4]oxazepin-3-yl)-N^2-((R)-1-phenylethyl)oxalamide], for which the inhibition at 1 µM at RIPK1 kinase [1] was not below 75%. In addition, the IC50 at RIPK1 kinase [2] is less than 100 nM.

Regarding `CC(CNC(=O)C(=O)N[C@H]1COc2ccc(C#CCCO)cc2N(C)C1=O)c1ccccc1` (mixture of isomers) [Example 154, N^1-((S)-7-(4-hydroxybut-1-yn-1-yl)-5-methyl-4-oxo-2,3,4,5-tetrahydrobenzo[b][1,4]oxazepin-3-yl)-N^2-(2-phenylpropyl)oxalamide], the inhibition at 1 µM on RIPK1 kinase [1] was not below 75%. Further, the IC50 at RIPK1 kinase [2] is less than 100 nM.

As to `CN1C(=O)[C@@H](NC(=O)C(=O)NCCc2ccccc2)COc2ccc(C#Cc3cccnc3)cc21` [Example 13, (S)—N^1-(5-methyl-4-oxo-7-(pyridin-3-ylethynyl)-2,3,4,5-tetrahydrobenzo[b][1,4]oxazepin-3-yl)-N^2-phenethyloxalamide], the inhibition at 1 µM on RIPK1 kinase [1] was not below 75%. Also, on RIPK1 kinase [2], the IC50 is less than 100 nM.

For `CN1C(=O)[C@@H](NC(=O)C(=O)NCCc2ccccc2)COc2ccc(C#Cc3ccsc3)cc21` [Example 17, (S)—N^1-(5-methyl-4-oxo-7-(thiophen-3-ylethynyl)-2,3,4,5-tetrahydrobenzo[b][1,4]oxazepin-3-yl)-N^2-phenethyloxalamide], at RIPK1 kinase [1], the inhibition at 1 µM is not below 75%. The 50% inhibitory concentration (IC50) on RIPK1 kinase [2] was less than 100 nM.

With `CN1C(=O)[C@@H](NC(=O)C(=O)NCCc2ccccc2)COc2ccc(C#C[Si](C)(C)C)cc21` [Example 18, (S)—N^1-(5-methyl-4-oxo-7-((trimethylsilyl)ethynyl)-2,3,4,5-tetrahydrobenzo[b][1,4]oxazepin-3-yl)-N^2-phenethyloxalamide], the inhibition at 1 µM at RIPK1 kinase [1] was not below 75%. Further, on RIPK1 kinase [2], the IC50 is less than 100 nM.

On to `CC#Cc1ccc2c(c1)N(C)C(=O)[C@@H](NC(=O)C(=O)NCCc1ccccc1)CO2` [Example 19, (S)—N^1-(5-methyl-4-oxo-7-(prop-1-yn-1-yl)-2,3,4,5-tetrahydrobenzo[b][1,4]oxazepin-3-yl)-N^2-phenethyloxalamide], for which the inhibition at 1 µM at RIPK1 kinase [1] is not below 75%. Also, the half-maximal inhibitory concentration (IC50) at RIPK1 kinase [2] is less than 100 nM.

`CN1C(=O)[C@@H](NC(=O)C(=O)NCCc2ccccc2)COc2ccc(C#CC3CCOCC3)cc21` [Example 21, (S)—N^1-(5-methyl-4-oxo-7-((tetrahydro-2H-pyran-4-yl)ethynyl)-2,3,4,5-tetrahydrobenzo[b][1,4]oxazepin-3-yl)-N^2-phenethyloxalamide]: the inhibition at 1 µM on RIPK1 kinase [1] was not below 75%. Also, the IC50 at RIPK1 kinase [2] was less than 100 nM.

As for `CN1C(=O)[C@@H](NC(=O)C(=O)NCCc2ccccc2)COc2ccc(C#Cc3cnn(C)c3)cc21` [Example 22, (S)—N^1-(5-methyl-7-((1-methyl-1H-pyrazol-4-yl)ethynyl)-4-oxo-2,3,4,5-tetrahydrobenzo[b][1,4]oxazepin-3-yl)-N^2-phenethyloxalamide], the inhibition at 1 µM on RIPK1 kinase [1] is not below 75%. Besides, at RIPK1 kinase [2], the 50% inhibitory concentration (IC50) was less than 100 nM.

As for `CN1C(=O)[C@@H](NC(=O)C(=O)NCCc2ccccc2)COc2ccc(C#CC3CCCNC3)cc21` (stereo partly drawn) [Example 24, N^1-((3S)-5-methyl-4-oxo-7-(piperidin-3-ylethynyl)-2,3,4,5-tetrahydrobenzo[b][1,4]oxazepin-3-yl)-N^2-phenethyloxalamide], the inhibition at 1 µM at RIPK1 kinase [1] was in the range of 50 to 74%. The IC50 at RIPK1 kinase [2] was less than 100 nM.

For the compound `CN1C(=O)[C@@H](NC(=O)C(=O)NCCc2ccccc2)COc2ccc(C#Cc3cnc4cccnn34)cc21` [Example 25, (S)—N^1-(7-(imidazo[1,2-b]pyridazin-3-ylethynyl)-5-methyl-4-oxo-2,3,4,5-tetrahydrobenzo[b][1,4]oxazepin-3-yl)-N^2-phenethyloxalamide], the inhibition at 1 µM at RIPK1 kinase [1] was not below 75%. Moreover, on RIPK1 kinase [2], the IC50 was less than 100 nM.

As for `CN1C(=O)[C@@H](NC(=O)C(=O)NCCc2ccccc2)COc2ccc(C#CC(C)(C)O)cc21` [Example 29, (S)—N^1-(7-(3-hydroxy-3-methylbut-1-yn-1-yl)-5-methyl-4-oxo-2,3,4,5-tetrahydrobenzo[b][1,4]oxazepin-3-yl)-N^2-phenethyloxalamide], the inhibition at 1 µM at RIPK1 kinase [1] is not below 75%. Further, the IC50 at RIPK1 kinase [2] is less than 100 nM.

Regarding `CN1C(=O)[C@@H](NC(=O)C(=O)NCCc2ccccc2)COc2ccc(C#CCCO)cc21` [Example 31, (S)—N^1-(7-(4-hydroxybut-1-yn-1-yl)-5-methyl-4-oxo-2,3,4,5-tetrahydrobenzo[b][1,4]oxazepin-3-yl)-N^2-phenethyloxalamide], at RIPK1 kinase [1], the inhibition at 1 µM was not below 75%. The IC50 at RIPK1 kinase [2] was less than 100 nM.

Turning to `CN1C(=O)[C@@H](NC(=O)C(=O)NCc2ccccc2)COc2ccc(C#CCCO)cc21` [Example 32, (S)—N^1-benzyl-N^2-(7-(4-hydroxybut-1-yn-1-yl)-5-methyl-4-oxo-2,3,4,5-tetrahydrobenzo[b][1,4]oxazepin-3-yl)oxalamide], on RIPK1 kinase [1], the inhibition at 1 µM was not below 75%. The IC50 on RIPK1 kinase [2] was less than 100 nM.

`CN1C(=O)[C@@H](NC(=O)C(=O)NCCc2ccccc2F)COc2ccc(C#CCCO)cc21` [Example 33, (S)—N^1-(2-fluorophenethyl)-N^2-(7-(4-hydroxybut-1-yn-1-yl)-5-methyl-4-oxo-2,3,4,5-tetrahydrobenzo[b][1,4]oxazepin-3-yl)oxalamide]: at RIPK1 kinase [1], the inhibition at 1 µM is not below 75%. Moreover, the IC50 on RIPK1 kinase [2] was less than 100 nM.

On to `CN1C(=O)[C@@H](NC(=O)C(=O)NCCc2cccc(F)c2)COc2ccc(C#CCCO)cc21` [Example 34, (S)—N^1-(3-fluorophenethyl)-N^2-(7-(4-hydroxybut-1-yn-1-yl)-5-methyl-4-oxo-2,3,4,5-tetrahydrobenzo[b][1,4]oxazepin-3-yl)oxalamide], for which the inhibition at 1 µM on RIPK1 kinase [1] was 50 to 74%. Besides, on RIPK1 kinase [2], the IC50 was less than 100 nM.
